Calls of active or inactive are those of the source. The calls are words filed in the database; no cut-off is given here.
Tests used:
[1] = Clearance in Beagle dog at 1 mg/kg, iv relative to liver blood flow; assay type: ADME, organism-based, Canis lupus familiaris; conditions: in vivo
[2] = Clearance in Sprague-Dawley rat at 1 mg/kg, iv; assay type: ADME, organism-based; conditions: in vivo
[3] = biological target: Cytochrome P450 2C9 (Homo sapiens, UniProt P11712); assay: Time dependent inhibition of CYP2C9 (unknown origin); assay type: ADME
[4] = Tmax in Beagle dog at 5 mg/kg, po; assay type: ADME, organism-based, Canis lupus familiaris; conditions: in vivo
[5] = biological target: Cytochrome P450 2D6 (Homo sapiens, UniProt P10635); assay: Time dependent inhibition of CYP2D6 (unknown origin); assay type: ADME
[6] = biological target: Voltage-gated inwardly rectifying potassium channel KCNH2 (Homo sapiens, UniProt Q12809)
Description: Binding affinity to human ERG

[7] = Fraction unbound in mouse plasma; assay type: ADME, cell-free
[8] = biological target: CYP3A4 (Homo sapiens, UniProt P08684); assay: Inhibition of CYP3A4 (unknown origin) at 10 uM relative to control; assay type: ADME
[9] = biological target: T1, CYP1A2 (Homo sapiens, UniProt P05177); assay: Inhibition of CYP1A2 (unknown origin) at 10 uM relative to control; assay type: ADME
T1 sequence (P05177 whole entry): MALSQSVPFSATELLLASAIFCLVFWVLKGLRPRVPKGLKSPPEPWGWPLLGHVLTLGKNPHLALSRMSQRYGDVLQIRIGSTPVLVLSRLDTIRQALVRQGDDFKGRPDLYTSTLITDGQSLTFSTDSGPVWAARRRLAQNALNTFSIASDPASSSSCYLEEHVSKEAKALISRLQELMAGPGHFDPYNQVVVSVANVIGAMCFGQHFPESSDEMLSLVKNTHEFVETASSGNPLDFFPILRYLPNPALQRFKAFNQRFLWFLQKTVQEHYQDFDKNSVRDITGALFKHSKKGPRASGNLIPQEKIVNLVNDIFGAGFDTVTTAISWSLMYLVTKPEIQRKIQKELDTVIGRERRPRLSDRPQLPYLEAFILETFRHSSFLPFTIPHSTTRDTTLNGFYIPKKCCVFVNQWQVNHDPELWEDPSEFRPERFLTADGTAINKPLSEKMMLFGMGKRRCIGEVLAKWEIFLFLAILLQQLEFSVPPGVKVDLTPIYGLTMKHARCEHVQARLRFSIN

[10] = Toxicity in Sprague-Dawley rat at 100 to 600 mg/kg, po QD administered via gavage as single dose for 28 days; assay type: organism-based; conditions: in vivo, 672 h, dose 100-600 mg/kg, time 28 day
[11] = Oral bioavailability in Beagle dog at 5 mg/kg; assay type: ADME, organism-based, Canis lupus familiaris; conditions: in vivo
[12] = Half life in Sprague-Dawley rat plasma at 1 mg/kg, iv; assay type: ADME, organism-based
[13] = Cmax in Beagle dog at 5 mg/kg, po; assay type: ADME, organism-based, Canis lupus familiaris; parameters: route oral, dose 5 mg/kg; conditions: in vivo
[14] = AUC (0 to infinity) in Sprague-Dawley rat at 25 mg/kg, po; assay type: ADME, organism-based; parameters: route oral, time infinity, dose 25 mg/kg; conditions: in vivo
[15] = Oral bioavailability in Sprague-Dawley rat at 25 mg/kg; assay type: ADME, organism-based; conditions: in vivo
[16] = Toxicity in CB17 SCID mouse xenografted with human KARPAS-422 cells harboring EZH2 Y641N mutant assessed as effect body weight loss at 160 mg/kg, po BID administered for 25 days; assay type: organism-based; conditions: in vivo, 600 h, time 25 day
[17] = test system: KARPAS-422; assay: Antitumor activity against human KARPAS-422 cells harboring EZH2 Y641N mutant xenografted in CB17 SCID mouse assessed as tumor regression at 160 mg/kg, po BID and measured within 2 weeks by caliper method; assay type: functional, organism-based
[18] = Protein binding in human plasma assessed as bound fraction; assay type: ADME, cell-free; conditions: read-out: PPB (converted)
[19] = biological target: CYP2D6 (Homo sapiens, UniProt P10635); assay: Inhibition of CYP2D6 (unknown origin) at 10 uM relative to control; assay type: ADME
[20] = Clearance in Beagle dog at 1 mg/kg, iv; assay type: ADME, organism-based, Canis lupus familiaris; conditions: in vivo
[21] = Toxicity in Beagle dog at 50 to 500 mg/kg, po BID administered via gavage […] for 28 days; assay type: organism-based, Canis lupus familiaris; conditions: in vivo, 672 h, dose 50-500 mg/kg, time 28 day
[22] = Unbound AUC in Sprague-Dawley rat at 25 mg/kg, po; assay type: ADME, organism-based; conditions: in vivo
[23] = AUC (0 to infinity) in Balb/c mouse at 100 mg/kg, po formulated in 0.5 % methyl cellulose maintained at pH 3 to 4; assay type: ADME, organism-based; parameters: time infinity, route oral, dose 100 mg/kg; conditions: in vivo, pH 3, 100 mg/kg
[24] = Oral bioavailability in Balb/c mouse at 100 mg/kg formulated in 0.5 % methyl cellulose maintained at pH 3 to 4; assay type: ADME, organism-based; conditions: in vivo, pH 3, 100 mg/kg
[25] = Clearance in Balb/c mouse at 1 mg/kg, iv formulated with 5:60:35 DMA/PEG400/20% SBECD; assay type: ADME, organism-based; conditions: in vivo
[26] = test system: KARPAS-422; assay: Antitumor activity against human KARPAS-422 cells harboring EZH2 Y641N mutant xenografted in CB17 SCID mouse assessed as tumor growth inhibition at 160 mg/kg, po BID administered for 25 days and measured post-treatment by caliper method relative to control; assay type: functional; conditions: KARPAS-422, po, 600 h, time 25 day, read-out: TGI
[27] = Unbound clearance in Balb/c mouse at 1 mg/kg, iv formulated with 5:60:35 DMA/PEG400/20% SBECD; assay type: ADME, organism-based; conditions: in vivo
[28] = Volume of distribution at steady state in Sprague-Dawley rat at 1 mg/kg, iv; assay type: ADME, organism-based; conditions: in vivo, read-out: Vdss
[29] = Half life in Balb/c mouse plasma at 1 mg/kg, iv formulated with 5:60:35 DMA/PEG400/20% SBECD; assay type: ADME, organism-based
[30] = Intrinsic clearance in mouse liver microsomes assessed per mg protein; assay type: ADME, Microsome
[31] = Fraction unbound in Beagle dog plasma; assay type: ADME, cell-free, Canis lupus familiaris
[32] = biological target: CYP2C9 (Homo sapiens, UniProt P11712); assay: Inhibition of CYP2C9 (unknown origin) at 10 uM relative to control; assay type: ADME
[33] = biological target: T2, Cytochrome P450 1A2 (Homo sapiens, UniProt P05177); assay: Time dependent inhibition of CYP1A2 (unknown origin); assay type: ADME
T2 sequence (P05177 whole entry): T1 sequence (P05177 whole entry)

Chain of Cytochrome P450 2C9 (P11712 whole entry): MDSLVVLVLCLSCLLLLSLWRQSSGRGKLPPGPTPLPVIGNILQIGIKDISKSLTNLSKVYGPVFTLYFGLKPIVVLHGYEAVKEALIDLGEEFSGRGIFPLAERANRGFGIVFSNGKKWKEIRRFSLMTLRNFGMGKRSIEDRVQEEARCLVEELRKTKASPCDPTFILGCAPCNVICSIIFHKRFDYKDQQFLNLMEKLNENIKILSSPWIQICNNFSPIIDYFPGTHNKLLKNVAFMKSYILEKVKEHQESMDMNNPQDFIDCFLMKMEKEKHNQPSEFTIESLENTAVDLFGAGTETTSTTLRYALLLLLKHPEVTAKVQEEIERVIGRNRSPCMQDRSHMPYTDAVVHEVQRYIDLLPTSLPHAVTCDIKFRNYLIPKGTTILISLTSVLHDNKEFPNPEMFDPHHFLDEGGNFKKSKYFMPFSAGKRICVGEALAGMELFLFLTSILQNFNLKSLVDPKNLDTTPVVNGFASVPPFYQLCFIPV
Chain of CYP2C9 (P11712 whole entry): as above
Chain of CYP2D6 (P10635 whole entry): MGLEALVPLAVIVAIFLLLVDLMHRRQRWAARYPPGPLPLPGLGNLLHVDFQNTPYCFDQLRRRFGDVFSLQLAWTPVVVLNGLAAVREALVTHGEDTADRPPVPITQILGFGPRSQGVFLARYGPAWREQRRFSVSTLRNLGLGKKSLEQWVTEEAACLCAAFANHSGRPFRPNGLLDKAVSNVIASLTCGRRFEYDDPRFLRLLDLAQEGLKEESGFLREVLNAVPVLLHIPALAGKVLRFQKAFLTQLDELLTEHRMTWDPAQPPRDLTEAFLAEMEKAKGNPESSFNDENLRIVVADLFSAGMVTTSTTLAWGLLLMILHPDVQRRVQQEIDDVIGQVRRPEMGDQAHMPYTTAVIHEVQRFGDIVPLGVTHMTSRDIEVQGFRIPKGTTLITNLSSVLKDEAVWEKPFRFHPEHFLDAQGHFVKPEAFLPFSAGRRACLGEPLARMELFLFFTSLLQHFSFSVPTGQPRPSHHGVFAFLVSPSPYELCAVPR
Chain of Cytochrome P450 2D6 (P10635 whole entry): as above
Chain of Voltage-gated inwardly rectifying potassium channel KCNH2 (Q12809 whole entry): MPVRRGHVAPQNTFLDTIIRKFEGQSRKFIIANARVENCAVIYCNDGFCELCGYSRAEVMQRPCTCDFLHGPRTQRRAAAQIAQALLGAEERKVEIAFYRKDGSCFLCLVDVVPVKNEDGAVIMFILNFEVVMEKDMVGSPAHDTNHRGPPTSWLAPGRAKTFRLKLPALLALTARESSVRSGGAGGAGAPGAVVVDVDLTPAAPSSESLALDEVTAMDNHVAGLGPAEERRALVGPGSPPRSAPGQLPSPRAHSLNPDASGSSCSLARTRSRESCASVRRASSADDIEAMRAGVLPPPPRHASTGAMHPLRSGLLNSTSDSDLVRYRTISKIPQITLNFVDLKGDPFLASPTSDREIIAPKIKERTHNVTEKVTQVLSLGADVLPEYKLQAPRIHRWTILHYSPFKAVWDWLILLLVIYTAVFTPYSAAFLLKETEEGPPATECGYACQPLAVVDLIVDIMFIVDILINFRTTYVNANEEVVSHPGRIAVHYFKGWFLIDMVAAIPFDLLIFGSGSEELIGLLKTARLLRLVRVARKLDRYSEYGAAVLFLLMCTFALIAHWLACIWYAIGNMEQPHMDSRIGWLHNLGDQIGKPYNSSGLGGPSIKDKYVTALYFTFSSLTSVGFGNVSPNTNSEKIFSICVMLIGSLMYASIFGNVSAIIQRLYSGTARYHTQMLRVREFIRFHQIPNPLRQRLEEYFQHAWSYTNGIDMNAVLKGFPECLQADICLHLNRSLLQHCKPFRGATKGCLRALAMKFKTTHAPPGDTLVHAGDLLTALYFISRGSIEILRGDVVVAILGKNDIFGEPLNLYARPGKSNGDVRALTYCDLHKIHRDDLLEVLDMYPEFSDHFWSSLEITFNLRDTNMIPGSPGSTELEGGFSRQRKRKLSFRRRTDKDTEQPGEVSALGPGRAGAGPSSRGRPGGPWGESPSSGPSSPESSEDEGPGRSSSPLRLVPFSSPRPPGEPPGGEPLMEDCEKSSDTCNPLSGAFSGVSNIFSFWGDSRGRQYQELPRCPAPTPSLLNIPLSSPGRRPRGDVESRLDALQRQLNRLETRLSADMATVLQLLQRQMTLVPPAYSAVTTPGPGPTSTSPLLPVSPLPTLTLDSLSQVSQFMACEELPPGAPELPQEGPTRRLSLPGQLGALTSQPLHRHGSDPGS
Chain of CYP3A4 (P08684 whole entry): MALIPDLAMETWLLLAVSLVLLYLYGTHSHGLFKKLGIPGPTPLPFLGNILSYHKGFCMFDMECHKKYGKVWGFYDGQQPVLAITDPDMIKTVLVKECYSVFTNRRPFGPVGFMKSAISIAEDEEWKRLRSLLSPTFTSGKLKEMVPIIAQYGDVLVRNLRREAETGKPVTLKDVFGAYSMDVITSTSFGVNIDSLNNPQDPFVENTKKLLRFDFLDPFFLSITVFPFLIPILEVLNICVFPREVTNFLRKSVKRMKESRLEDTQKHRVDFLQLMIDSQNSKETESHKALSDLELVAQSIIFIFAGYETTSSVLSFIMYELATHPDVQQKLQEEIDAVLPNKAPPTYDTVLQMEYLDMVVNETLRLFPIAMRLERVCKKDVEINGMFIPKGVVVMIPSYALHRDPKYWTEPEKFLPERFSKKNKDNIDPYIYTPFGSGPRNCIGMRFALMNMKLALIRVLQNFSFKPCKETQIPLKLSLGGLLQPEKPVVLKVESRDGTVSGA

COc1cc(C)[nH]c(=O)c1CNC(=O)c1c(C)n([C@H](C)C2CCN(CC(F)(F)F)CC2)c2ccccc12 [CPI-1205]
CL [1]: 76%
clearance [2]: 53.2 mL/min/kg
TDI [3]: Not Active
Tmax [4]: 1.67 h
TDI [5]: Not Active
IC50 [6]: 21.3 µM
Fu [7]: 0.021%
inhibition at 10 µM [8]: 0%
inhibition at 10 µM [9]: 15%
Activity [10]: Non-Toxic
F [11]: 46.2%
half-life [12]: 0.653 h
Cmax [13]: 1240 nM
AUC(0-inf) [14]: 7.06 µM·h
F [15]: 44.6%
Activity [16]: Non-Toxic
Activity [17]: Active
fraction unbound [18]: 0.072
inhibition at 10 µM [19]: 9.5%
clearance [20]: 23.5 mL/min/kg
Activity [21]: Non-Toxic
fAUC [22]: 0.713 µM·h
AUC [23]: 88.88 µM·h
F [24]: 100%
clearance [25]: 36 mL/min/kg
inhibition in vivo at 160 mg/kg [26]: > 97%
CL free [27]: 1715 mL/min/kg
Vd [28]: 2.22 L/kg
half-life [29]: 1.63 h
CLH [30]: 159 µL/min
Fu [31]: 0.021%
inhibition at 10 µM [32]: 11.1%
TDI [33]: Not Active

Source: ChEMBL document CHEMBL4765232 (J Med Chem, 2016)
